Source: patent US20220251109A1, “OXAAZAQUINAZOLINE-7(8H)-KETONE COMPOUND, PREPARATION METHOD THEREFOR AND PHARMACEUTICAL APPLICATION THEREOF” (GENFLEET THERAPEUTICS (SHANGHAI) INC., priority 2019, published 2022)

Assays:
[1] = test system: A549 cells (Kras G12S mutation); assay: Cell proliferation inhibition experiment, 3D model, CellTiter-Glo (A549); assay type: cell-based, human; details: A549, 3D sphere plate, 5 days, 2% FBS
Method: (§1) NCI-H358 was a human non-small cell lung cancer cell line with Kras G12C mutation, cultured in 10% FBS RPMI-1640 medium; A549 was a human lung adenocarcinoma cell line with Kras G12S mutation, cultured in 10% FBS F-12K medium. The cells in the logarithmic growth phase was taken, digested with trypsin EDTA, collected and counted, and H358 was adjusted to 1.8E4 cells/ml using 2% FBS RPMI-1640 medium, and A549 was adjusted to 8.9E3 cells/ml using 2% FBS F-12K medium; 800 (45 μl) H358 or 400 (45 μl) A549 cells were seeded in a 384-well sphere plate respectively, cultured overnight to establish a 3D cell model. DMSO was used to prepare 1000× compound 3.16-fold gradient concentration stock solution, and 2% FBS medium was used to dilute 100-fold to 10× compound stock solution. On the second day after cell seeding, 5 μl 10× compound stock solution was added to each cell culture well, the final concentration was 1×, and DMSO content was 0.1%. DMSO was used as the experimental control (control) and 2% FBS medium as the blank control (blank). After the compound and cells were added and cultured for 5 days, 25 μl CellTiter-Glo working solution was added to each well, mixed at 400 rpm and incubated for 30 minutes. After 30 minutes at room temperature, 40 μl of the mixture was transferred to a 384-well plate with a non-transparent white bottom, the luminescence chemiluminescence value was read, and the cells proliferation inhibition rate IR (%)=(RLU control-RLU compound)/(RLU control-RLU blank)×100% was calculated, Prism 6 four-parameter method was used to fit the compound's gradient dilution concentration and the corresponding cell proliferation inhibition rate, and the IC50 value was calculate.

[2] = test system: NCI-H358 cells (Kras G12C mutation); assay: Cell proliferation inhibition experiment, 3D model, CellTiter-Glo (NCI-H358); assay type: cell-based, human; details: NCI-H358, 3D sphere plate, 5 days, 2% FBS
Method: as §1

Row | Structure (SMILES) | IC50 [1] | IC50 [2] | IC50 ([1]; Homo sapiens, A549, 120 h) | IC50 ([2]; Homo sapiens, NCI-H358, 120 h)
1 | C=CC(=O)N1CCN2c3nc(=O)n(-c4c(C)ccnc4C(C)C)c4cc(-c5c(C)ccc6[nH]ncc56)cc(c34)OC[C@@H]2C1 (atropisomer, axis not shown) [Compound Z19-1] | 6990 nM | 321 nM | – | –
2 | C=CC(=O)N1CCN2c3nc(=O)n(-c4c(C)ccnc4C(C)C)c4cc(-c5c(O)cccc5F)c(Cl)c(c34)OC[C@H]2C1 (single isomer, unassigned) [Compound Z29-3] | > 10000 nM | 165 nM | – | –
3 | C=CC(=O)N1CCN2c3nc(=O)n(-c4c(C)ccnc4C(C)C)c4cc(-c5ncccc5F)c(Cl)c(c34)OC[C@@H]2C1 [Compound Z35] | – | – | > 10000 nM | 164 nM
4 | C=CC(=O)N1CCN2c3nc(=O)n(-c4c(C)ccnc4C(C)C)c4nc(-c5cccc(C(F)(F)F)c5F)c(Cl)c(c34)OC[C@@H]2C1 (atropisomer, axis not shown) [Compound Z57-1] | > 10000 nM | 111 nM | – | –
5 | C=CC(=O)N1CCN2c3nc(=O)n(-c4c(C)ccnc4C(C)C)c4cc(-c5c(C)ccc6[nH]ncc56)cc(c34)OCCC2C1 (stereo not shown) [Compound Z22] | – | – | > 10000 nM | 118 nM
6 | C=CC(=O)N1CCN2c3nc(=O)n(-c4c(C)ccnc4C(C)C)c4nc(-c5c(F)cccc5C(F)(F)F)c(Cl)c(c34)OC[C@@H]2C1 [Compound Z70] | – | – | > 10000 nM | 42 nM
7 | C=CC(=O)N1CCN2c3nc(=O)n(-c4c(C#N)cnn4C(C)(C)C)c4nc(-c5ccccc5F)c(Cl)c(c34)OC[C@H]2C1 (single isomer, unassigned) [Compound Z109-2] | 9780 nM | 106 nM | – | –
8 | C=CC(=O)N1CCN2c3nc(=O)n(-c4c(C)ccnc4C(C)C)c4nc(-c5ccccc5F)c(Cl)c(c34)OC[C@@H]2C1 (single isomer, unassigned) [Compound Z46-1] | – | 89 nM | 8360 nM | –
9 | C=CC(=O)N1CCN2c3nc(=O)n(-c4c(C)ncnc4C(C)C)c4cc(-c5c(C)ccc6[nH]ncc56)c(Cl)c(c34)OC[C@@H]2C1 (single isomer, unassigned) [Compound Z45-4] | > 10000 nM | 65 nM | – | –
10 | [2H]C([2H])([2H])Oc1cccc(F)c1-c1nc2c3c(nc(=O)n2-c2c(C)ccnc2C(C)C)N2CCN(C(=O)C=C)C[C@@H]2COc3c1F (single isomer, unassigned) [Compound Z100-2] | > 10000 nM | 31 nM | – | –
11 | C=CC(=O)N1CCN2c3nc(=O)n(-c4c(C)ccnc4C(C)C)c4nc(-c5c(O)cccc5F)cc(c34)OC[C@H]2C1 [Compound Z25, (R)-7-acryloyl-2-(2-fluoro-6-hydroxyphenyl)-12-(2-isopropyl-4-methylpyridin-3-yl)-5,5a,6,7,8,9-hexahydro-4-oxo-1,7,9a,10,12-pentazabenzo[4,5]cyclohepta[1,2,3-de]naphthalen-11 (12H)-one] | 24200 nM | 94 nM | – | –
12 | C=CC(=O)N1CCN2c3nc(=O)n(-c4c(C)ccnc4C(C)C)c4nc(-c5ccncc5F)c(Cl)c(c34)OC[C@@H]2C1 [Compound Z69] | – | – | > 10000 nM | 95 nM
13 | C=CC(=O)N1CCN2c3nc(=O)n(-c4c(C)ccnc4C(C)C)c4nc(-c5cc(F)cc(F)c5O)c(Cl)c(c34)OC[C@@H]2C1 [Compound Z54] | – | – | > 10000 nM | 66 nM
14 | C=CC(=O)N1CCN2c3nc(=O)n(-c4c(C)ccnc4C(C)C)c4nc(-c5ccc(F)cc5)c(Cl)c(c34)OC[C@@H]2C1 [Compound Z50] | – | – | > 10000 nM | 50 nM
15 | C=CC(=O)N1CCN2c3nc(=O)n(-c4c(C)ccnc4C(C)C)c4nc(-c5c(O)cccc5F)c(Cl)c(c34)OC[C@H]2C1 (single isomer, unassigned) [Compound Z23-2] | > 10000 nM | 21 nM | – | –
16 | C=CC(=O)N1CCN2c3nc(=O)n(-c4c(C)ccnc4C(C)C)c4nc(-c5cccc(F)c5)c(Cl)c(c34)OC[C@@H]2C1 [Compound Z48] | – | – | > 10000 nM | 22 nM
17 | C=CC(=O)N1CCN2c3nc(=O)n(-c4c(C)ccnc4C(C)C)c4nc(-c5c(F)cc(F)cc5F)c(Cl)c(c34)OC[C@@H]2C1 [Compound Z56] | – | – | > 10000 nM | 11 nM
18 | C=CC(=O)N1CCN2c3nc(=O)n(-c4c(C)ccnc4C(C)C)c4nc(-c5ccc(F)cc5F)c(Cl)c(c34)OC[C@@H]2C1 (atropisomer, axis not shown) [Compound Z49-2] | > 10000 nM | 113 nM | – | –
19 | C=CC(C)N1CCN2c3nc(=O)n(-c4c(C)ccnc4C(C)C)c4nc(-c5cnccc5C)c(Cl)c(c34)OC[C@@H]2C1 (stereo partly shown) [Compound Z81] | – | – | > 10000 nM | 204 nM
20 | C=CC(=O)N1CCN2c3nc(=O)n(CC4CC4)c4cc(-c5c(O)cccc5F)c(Cl)c(c34)OC[C@@H]2C1 [Compound Z37-2] | – | – | 29500 nM | 276 nM
21 | C=CC(=O)N1CCN2c3nc(=O)n(-c4c(C)ccnc4C(C)C)c4cc(-c5c(C)ccc6[nH]ncc56)cc(c34)OC[C@H]2C1 [Compound Z18, (R)-2-acryloyl-8-(2-isopropyl-4-methylpyridin-3-yl)-10-(5-methyl-1H-indazol-4-yl)-1,2,3,4,13,13a-hexahydropyrazino[2′,1′:3,4][1,4]oxazepine[5,6,7-de]quinazolin-7 (8H)-one] | – | – | 12400 nM | 107 nM
22 | C=CC(=O)N1CCN2c3nc(=O)n(-c4c(C)ccnc4C(C)C)c4nc(-c5c(O)cccc5F)cc(c34)OC[C@H]2C1 (single isomer, unassigned) [Compound Z25-1] | > 10000 nM | 46 nM | – | –
23 | C=CC(=O)N1CCN2c3nc(=O)n(-c4c(C)ccnc4C(C)C)c4nc(-c5ccccc5C(C)C)c(Cl)c(c34)OC[C@@H]2C1 [Compound Z62] | – | – | > 10000 nM | 6 nM
24 | C=CC(=O)N1CCN2c3nc(=O)n(CC(C)C)c4cc(-c5c(O)cccc5F)c(Cl)c(c34)OC[C@@H]2C1 [Compound Z32] | – | – | 23500 nM | 308 nM
25 | C=CC(=O)N1CCN2c3nc(=O)n(-c4ccccc4C(C)C)c4cc(-c5c(C)ccc6[nH]ncc56)c(Cl)c(c34)OCC2C1 (stereo not shown) [Compound Z1] | – | – | 7450 nM | 2 nM
26 | C=CC(=O)N1CCN2c3nc(=O)n(-c4c(C)ncnc4C(C)C)c4cc(-c5c(C)ccc6[nH]ncc56)c(Cl)c(c34)OC[C@@H]2C1 (single isomer, unassigned) [Compound Z45-1] | – | 3 nM | > 10000 nM | –
27 | C=CC(=O)N1CCN2c3nc(=O)n(-c4c(C)ccnc4C(C)C)c4nc(-c5c(O)cccc5F)cc(c34)OC[C@H]2C1 (atropisomer, axis not shown) [Compound Z25-2] | > 10000 nM | 281 nM | – | –
28 | C=CC(=O)N1CCN2c3nc(=O)n(-c4c(C)ccnc4C(C)C)c4nc(-c5cccnc5C)c(Cl)c(c34)OC[C@@H]2C1 [Compound Z78] | – | – | > 10000 nM | 254 nM
29 | C=CC(=O)N1CCN2c3nc(=O)n(-c4c(C)ccnc4C(C)C)c4nc(-c5c(O)cccc5F)c(Cl)c(c34)OC[C@H]2C1 [Compound Z23, (5aR)-7-acryloyl-3-chloro-2-(2-fluoro-6-hydroxyphenyl)-12-(2-isopropyl-4-methylpyridin-3-yl)-5,5a,6,7,8,9-hexahydro-4-oxo-1,7,9a,10,12-pentazabenzo[4,5] cyclohepta[1,2,3-de]naphthalen-11 (12H)-one] | – | – | > 10000 nM | 2 nM
